Values of other authors, collected in patent publication US7632828B2, “Gram-positive carbapenem antibacterials and processes for their preparation” (FOB Synthesis, Inc., priority 2004, dated 2009).

Assays:
[1] = target: T1, mammalian β-lactamase renal dehydropeptidase-I (DHP-I) (Homo sapiens, UniProt P16444)
T1 sequence (P16444 17-385): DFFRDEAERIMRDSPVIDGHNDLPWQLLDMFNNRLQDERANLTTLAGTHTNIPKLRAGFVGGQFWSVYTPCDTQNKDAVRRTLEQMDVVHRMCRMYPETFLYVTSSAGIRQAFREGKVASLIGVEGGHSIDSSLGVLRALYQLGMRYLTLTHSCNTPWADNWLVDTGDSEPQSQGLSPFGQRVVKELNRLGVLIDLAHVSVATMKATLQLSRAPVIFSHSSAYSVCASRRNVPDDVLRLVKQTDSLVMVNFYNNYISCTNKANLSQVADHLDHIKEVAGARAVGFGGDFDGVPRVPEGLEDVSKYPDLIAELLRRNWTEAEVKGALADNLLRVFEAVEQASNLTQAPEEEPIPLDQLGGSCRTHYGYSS

[2] = test subjects
[3] = due to its lactam nucleus and amino acid configuration
kidney dehydropeptidase = target: T2, kidney dehydropeptidase (Homo sapiens, UniProt P16444)
T2 sequence (P16444 17-385): T1 sequence (P16444 17-385)

C[C@@H](O)[C@H]1C(=O)N2C(C(=O)O)=C(SCCN=CN)C[C@H]12 [imipenem, N-formimidoyl thienamycin]
stability to renal dehydropeptidase-I (DHP-I) [1]: instability
urinary tract recovery [2]: poor urinary tract recovery

C[C@@H](O)[C@H]1C(=O)N2C(C(=O)O)=C(SCCN)C[C@H]12 [thienamycin]
activity against Pseudomonas spp. (Pseudomonas spp.): active against Pseudomonas spp.
chemical stability [3]: chemically unstable

Biapenem
stability against hydrolysis by kidney dehydropeptidase (kidney dehydropeptidase): stability against hydrolysis by kidney dehydropeptidase
potency across bacterial spectrum (wide bacterial spectrum): exhibits potency across a wide bacterial spectrum

meropenem
activity against Gram-negative bacteria (Gram-negative bacteria): active against a large number of Gram-negative bacteria
